# Assay results: patent publication US20090170886A1 (Pfizer Inc, priority 2005, published 2009)
# Target: T1, androgen receptor in MDA-MB453-MMTV clone 54-19 cells (Homo sapiens, UniProt P10275)
# T1 sequence (P10275 1-920 Q868H): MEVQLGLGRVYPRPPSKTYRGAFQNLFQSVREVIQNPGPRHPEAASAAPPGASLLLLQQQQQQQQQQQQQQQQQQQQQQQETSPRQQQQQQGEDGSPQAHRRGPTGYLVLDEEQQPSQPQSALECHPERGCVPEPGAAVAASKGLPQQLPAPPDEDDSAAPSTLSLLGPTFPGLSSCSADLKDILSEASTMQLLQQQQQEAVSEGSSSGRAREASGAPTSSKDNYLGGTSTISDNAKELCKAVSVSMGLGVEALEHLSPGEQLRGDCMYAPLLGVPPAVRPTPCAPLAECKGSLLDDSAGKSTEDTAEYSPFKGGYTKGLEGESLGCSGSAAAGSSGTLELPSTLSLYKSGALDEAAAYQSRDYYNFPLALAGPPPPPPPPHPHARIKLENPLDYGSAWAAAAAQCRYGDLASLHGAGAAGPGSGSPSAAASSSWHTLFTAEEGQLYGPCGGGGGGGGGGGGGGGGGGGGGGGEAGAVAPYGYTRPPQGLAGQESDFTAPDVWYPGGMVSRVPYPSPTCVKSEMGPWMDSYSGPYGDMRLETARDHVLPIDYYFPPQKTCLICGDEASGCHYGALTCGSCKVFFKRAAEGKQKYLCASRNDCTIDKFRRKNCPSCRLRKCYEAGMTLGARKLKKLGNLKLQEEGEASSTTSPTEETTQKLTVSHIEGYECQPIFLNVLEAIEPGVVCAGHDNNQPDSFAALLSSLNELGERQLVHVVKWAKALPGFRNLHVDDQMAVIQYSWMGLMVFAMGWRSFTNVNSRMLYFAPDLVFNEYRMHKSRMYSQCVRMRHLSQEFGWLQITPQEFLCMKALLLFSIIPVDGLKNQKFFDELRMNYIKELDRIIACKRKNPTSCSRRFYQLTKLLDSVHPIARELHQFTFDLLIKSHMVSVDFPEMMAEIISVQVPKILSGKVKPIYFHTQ
# Experiment: AR Antagonist Cell Assay (MMTV-luciferase reporter, DHT-induced)
# Assay type: cell-based
# Conditions: MDA-MB453-MMTV clone 54-19, 100 pM DHT, 17 hr; mean of multiple tests
# Outline: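 MDA-MB453 cells stably carrying an ARE-containing MMTV-luciferase reporter, in phenol red-free medium with 1% charcoal-treated serum, preincubated 30 min with compound (0.32-1000 nM), then stimulated with 100 pM DHT for 17 h at 37 °C. Luminescence read; percent inhibition of DHT fold induction.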
row,Compound,IC50 [nM]
1,"CCCC(Oc1ccc(C#N)c(C(F)(F)F)c1)c1cccc(O)c1 (single isomer, unassigned; (+)) [Example 15, (+)4-[1-(3-Hydroxyphenyl)butoxy]-2-(trifluoromethyl)benzonitrile]",102
2,"CC(C)CC(Oc1ccc(C#N)c(C(F)(F)F)c1)c1cccnc1 (stereo not drawn) [Example 88, 4-(3-Methyl-1-pyridin-3-yl-butoxy)-2-trifluoromethyl-benzonitrile]",50
3,"CC(Oc1ccc(C#N)c(C(F)(F)F)c1)c1ccccc1 (racemic) [Example 1, 4-(1-Phenyl-ethoxy)-2-trifluoromethyl-benzonitrile]",90
4,"CC(Oc1ccc(C#N)c(C(F)(F)F)c1)c1cccc(O)c1 (single isomer, unassigned; (-)) [Example 9, (−)-4-[1-(3-Hydroxyphenyl)ethoxy]-2-(trifluoromethyl)benzonitrile]",13
5,"N#Cc1ccc(OCc2cccc(O)c2)cc1C(F)(F)F [Example 6, 4-[(3-Hydroxybenzyl)oxy]-2-(trifluoromethyl)benzonitrile]",6
6,"Cc1ccc(C(CC(C)C)Oc2ccc(C#N)c(C(F)(F)F)c2)cn1 (stereo not drawn) [Example 89, 4-[3-Methyl-1-(6-methyl-pyridin-3-yl)-butoxy]-2-trifluoromethyl-benzonitrile]",56
7,"C=CCC(Oc1ccc(C#N)c(C(F)(F)F)c1)c1cccc(O)c1 (single isomer, unassigned; (-)) [Example 19, (−)4-{[1-(3-Hydroxyphenyl)but-3-enyl]oxy}-2-(trifluoromethyl)benzonitrile]",34
8,"COc1cccc(C(C)Oc2ccc(C#N)c(C(F)(F)F)c2)n1 (stereo not drawn) [Example 80, 4-[1-(6-Methoxy-pyridin-2-yl)-ethoxy]-2-trifluoromethyl-benzonitrile]",152
9,"CCC(Oc1ccc(C#N)c(C(F)(F)F)c1)c1ccccn1 (stereo not drawn) [Example 79, 4-(1-Pyridin^−2-yl-propoxy)-2-trifluoromethyl-benzonitrile]",27.1
10,"CC(C)CC(Oc1ccc(C#N)c(C(F)(F)F)c1)c1cccc(O)c1 (single isomer, unassigned; (+)) [Example 21, (+)4-[1-(3-Hydroxyphenyl)-3-methylbutoxy]-2-(trifluoromethyl)benzonitrile]",79
11,"CCCC(Oc1ccc(C#N)c(C(F)(F)F)c1)c1cccc(O)c1 (racemic) [Example 14, 4-[1-(3-Hydroxyphenyl)butoxy]-2-(trifluoromethyl)benzonitrile]",36
12,"CC(Oc1ccc(C#N)c(C(F)(F)F)c1)c1cncc(O)c1 (single isomer, unassigned; (+)) [Example 74, (+)4-[1-(5-Hydroxypyridin-3-yl)ethoxy]-2-(trifluoromethyl)benzonitrile]",111
